Results on 5 compounds are retold here after paper PMC7375528, “Piperidine scaffold as the novel P2-ligands in cyclopropyl-containing HIV-1 protease inhibitors: Structure-based design, synthesis, biological evaluation and docking study” (PLoS ONE, 2020).

One data set concerns HIV-1 protease. Details: method as in PMID 32057582. The note with it: previously reported PIs; cited from earlier work.
Another data set concerns wild-type HIV-1 variants. Kind of data set: HIV-1 infectivity assay, wild-type. The settings on record: Human immunodeficiency virus 1, read-out: inhibition against wild-type HIV-1 variants. The data set is classed as cell-based. As to the method:
(§1) . Inhibitors dissolved in dimethylsulfoxide (DMSO) and diluted to appropriate concentrations, were added into culture medium at 5 hours of post-transfection. After incubating for 48 hours at temperature 37 °C, pseudotyped viruses in 10 μL of supernatant were used to infect SupT1 cells for 48 hours, followed by measuring luciferase activity of newly infected cells using Centro LB960 (Berthold).
For the assay using wild type HIV-1, 1×10^6 SupT1 cells were infected with 100 μL HIV-1 NL4-3 in the presence of 100 nM chemicals and 10 μg/mL polybrene, keeping a total volume of 500 μL (Spin infection at 1800rpm, 45min). Cells were washed once in the next morning and medium were replaced with fresh medium containing 100 nM chemicals. At 48 hpi, viruses were harvested and 50 μL of viruses were used to infect TZM-bl cells, followed by measuring luciferase activity in the infected cells.
(§2) Fig 6 Inhibition of inhibitors against wild-type and DRV-resistant HIV-1 variants.

In the next data set the target is T1, wild-type HIV-1 PR (Human immunodeficiency virus type 1 group M subtype B, UniProt P04585).
T1 construct: HIV-1 protease was cloned and heterologously expressed in Escherichia coli and purified; made in house; host or cells: Escherichia coli
Kind of data set: In vitro HIV-1 PR activity assay (FRET). The data set is classed as biochemical. As to the method: (§3) The inhibitory effect of all new designed inhibitors were measured using fluorescence resonance energy transfer (FRET) method. […] The energy transfer donor (EDANS) and acceptor (DABCYL) dyes are labeled at two ends of the peptide to perform FRET. Excitation and emission wavelengths were set at 340 nm and 490 nm. Inhibitors were dissolved in dimethylsulfoxide (DMSO) and diluted to appropriate concentrations. HIV-1 protease was cloned and heterologously expressed in Escherichia coli and purified. The experiment was carried out in 96-well plates. The FRET assay reaction buffer contained 0.1 M sodium acetate, 1 M sodium chloride, 1 mM ethylenediaminetetraacetic acid (EDTA), 1 mM dithiothreitol (DTT), 2% DMSO and 1 mg/mL bovine serum albumin (BSA) with an adjusted pH 4.7. Protease and inhibitor were mixed and incubated for 20–30 mins at room temperature and then the substrate was added. Each reaction was recorded for about 10 mins. From plots of concentration versus the calculated percent inhibition, IC50 values were determined.
as §3, with “20-30” for “20–30”, “mins.” for “mins. From plots of concentration versus the calculated percent inhibition, IC50 values were determined.”

The test system of data set [1] is DRV-resistant HIV-1 variants. Put plainly: HIV-1 infectivity assay, DRV-resistant. The settings on record: Human immunodeficiency virus 1, read-out: inhibition against DRV-resistant HIV-1 variants. Type of data set: cell-based. As to the method: as §1, §2
Data set [2] is described as follows: Cytotoxicity assay (cell counting kit-8). Type of data set: cell-based. The settings on record: human; 293T cells, CCK-8, 24h exposure. As to the method: Selected inhibitors were further evaluated in cytotoxicity assay using a cell counting kit-8 assay. […] After 24h of culture, 1μL of drugs were added to each well. After another 24h of culture, 10 μL of CCK-8 was added to each well. Absorbance was quantified at wavelength 450 nm using an EnVision multilabel reader (PerkinElmer) after 2h at room temperature.
Background: Tetrazolium assays rely on reduction of a dye to a coloured formazan, in cell work by metabolically active cells.

The term IC50 denotes the midpoint of a concentration-inhibition curve. For `O=C(N[C@@H](Cc1ccccc1)[C@H](O)CN(C1CC1)S(=O)(=O)c1ccc(C(F)(F)F)cc1)N1CCOCC1` [B], the concentration for half-maximal inhibition (IC50) with HIV-1 protease was 47 nM.

In general, inhibition refers to the relative decrease from the control value, in per cent. One may read the melting point as the temperature, or range, at which the solid turns liquid. Broadly, the CC50 is the concentration that lowers cell viability or growth by half. Low values mean harm at low concentration, high ones better tolerance by the cells. For the compound `CN1CCC[C@@H](C(=O)N[C@@H](Cc2ccccc2)[C@H](O)CN(C2CC2)S(=O)(=O)c2ccc(C(F)(F)F)cc2)C1` [24b, (R)-N-((2S,3R)-4-((N-cyclopropyl-4-(trifluoromethyl)phenyl)sulfonamido)-3-hydroxy-1-phenylbutan-2-yl)-1-methylpiperidine-3-carboxamide], the melting point fell in the range of 82.9 to 84.7 °C. For the same compound, the inhibition at 10 µM in the data set with wild-type HIV-1 variants amounted to 12%. The compound also displayed an IC50 at wild-type HIV-1 PR of 9.28 ± 5.66 nM. Also, the inhibition at 10 µM in data set [1] came out at 7%. Moreover, in data set [2], the half-maximal cytotoxic concentration (CC50) at 24 h was greater than 100000 nM.

As for `COc1ccc(S(=O)(=O)N(C[C@@H](O)[C@H](Cc2ccccc2)NC(=O)OCCN2CCOCC2)C2CC2)cc1` [A], the 50% inhibitory concentration (IC50) with HIV-1 protease is 53 nM.

Consider `COc1ccc(S(=O)(=O)N(C[C@@H](O)[C@H](Cc2ccccc2)NC(=O)[C@@H]2CCCNC2)C2CC2)cc1` [22a, (R)-N-((2S,3R)-4-((N-cyclopropyl-4-methoxyphenyl)sulfonamido)-3-hydroxy-1-phenylbutan-2-yl)piperidine-3-carboxamide], for which the melting point was 162.8 to 164.3 °C. Besides, the inhibition at 10 µM in the data set with wild-type HIV-1 variants is 42%. In addition, half-maximal inhibition at wild-type HIV-1 PR (IC50) required 3.61 nM. Further, the “improvement of potency over 23a” value at wild-type HIV-1 PR (ratio of IC50 values, (R)- vs (S)-configuration) is given as 120 fold. The inhibition at 10 µM in data set [1] stood at 26%. In data set [2], this compound returned a CC50 at 24 h greater than 100000 nM.

As for `COc1ccc(S(=O)(=O)N(C[C@@H](O)[C@H](Cc2ccccc2)NC(=O)[C@@H]2CCCN(C)C2)C2CC2)cc1` [24a, (R)-N-((2S,3R)-4-((N-cyclopropyl-4-methoxyphenyl)sulfonamido)-3-hydroxy-1-phenylbutan-2-yl)-1-methylpiperidine-3-carboxamide], the melting point is 86.4 to 88.2 °C. Moreover, the inhibition at 10 µM with wild-type HIV-1 variants was found to be 16%. At wild-type HIV-1 PR, this compound registered a concentration for half-maximal inhibition (IC50) of 8.07 ± 3.59 nM. Besides, the inhibition at 10 µM in data set [1] stood at 8%. The 50% cytotoxic concentration (CC50) at 24 h in data set [2] was greater than 100000 nM.
